For this experiment, the system named is Diamondback moth (Plutella xylostella). In words: Test Example 1: Japanese radish seed treatment, mortality of Diamondback moth larvae. Type of experiment: in vivo. Particulars: 48 h, Diamondback moth third instar larvae released 4 days after seeding, observed 2 days after release, average of two replications; for mortality at 0.01 mg: dose 0.01 mg/1 grain of seed; for mortality at 0.2 mg: dose 0.2 mg/1 grain of seed. The method, then: Each of the present fused heterocyclic compounds 3, 4, 5, 9, 15, 16, 17, 18, 19, 20, 22, 25, 72, 74, 85, 130, 399, 409, 414, 419, 443, 444, 445, 464 and 467 was dissolved in acetone (available from Wako Pure Chemical Industries, Ltd.) containing 5% (W/V) SOLGEN TW-20 (available from Daiichi-Kogyo Seiyaku Co. Ltd.) so as to give a prescribed concentration, and to prepare the testing solution.
Nine (9) grains of the Japanese raddish (Raphanus sativas var. longipinnatus) were placed in a 2 ml volume polypropylene microtube (manufactured by As One Co.) and thereto was added 18 μl of the above testing solution and the seeds in the microtube were shaken and stirred on Stirrer (Trade name: VORTEX-GENIE2, manufactured by Scientific Industries, Inc.). After the testing solution was spread uniformly to the whole seed, the seeds were allowed to air dry.
To a 90 ml volume of plastic cup filled with ten (10) g of culture soil (Trade name: Aisai No. 1; available from Katakura Chikkarin Co., Ltd.) was added water (5 ml) and thereto was seeded three (3) grains of the above seeds.
At four days after the seeding, Diamondback moth (Plutella xylostella) at the third instar larval stages were released in a ratio of 10 (ten) heads of insects per the cup, and then the cups were covered with nylon gauze and covered with a lid (hereinafter, referred to as “treated group”).
On the other hand, Japanese raddish was seeded by the similar procedures to the treated group except that the present fused heterocyclic compound was not dissolved in acetone (available from Wako Pure Chemical Industries, Ltd.) containing 5% (W/V) SOLGEN TW-20 (available from Daiichi-Kogyo Seiyaku Co. Ltd.), and the larvae were released, and the cups were covered with a lid (hereinafter, referred to as “Untreated group”).
At two days after the release, the surviving and death of the larvae were observed and on basis of the results of the observation, the mortalities of both groups were calculated by the following equation 1), respectively. Two replication tests were performed on each group. The average value is shown below. Mortality (%)=(Total number of […])/Total number of Tested insects×100 Equation 1)

Take `CCS(=O)(=O)c1cccnc1-c1nc2cc(C(F)(F)F)cnc2n1C` [Present fused heterocyclic compound 3, 2-(3-ethylsulfonylpyridin-2-yl)-3-methyl-6-trifluoromethyl-3H-imidazo[4,5-b]pyridine]: the mortality – broadly, the percentage killed – at 0.01 mg amounted to 100% and the mortality at 0.2 mg amounted to 100%.
With `CCSc1cc(C(F)(F)F)cnc1-c1nc2cc(C(F)(F)F)cnc2n1C` [Present fused heterocyclic compound 4, 2-(3-ethylsulfanyl-5-trifluoromethylpyridin-2-yl)-3-methyl-6-trifluoromethyl-3H-imidazo[4,5-b]pyridine], the mortality at 0.01 mg amounted to 100% and the mortality at 0.2 mg is 100%.
`CCS(=O)(=O)c1cc(C(F)(F)F)cnc1-c1nc2cc(C(F)(F)F)cnc2n1C` [Present fused heterocyclic compound 5, 2-(3-ethylsulfonyl-5-trifluoromethylpyridin-2-yl)-3-methyl-6-trifluoromethyl-3H-imidazo[4,5-b]pyridine]: the mortality at 0.01 mg was determined as 100% and the mortality at 0.2 mg stood at 100%.
With `CCSc1cccnc1-c1nc2cc(I)cnc2n1C` [Present fused heterocyclic compound 9, 2-(3-ethylsulfanyl-pyridin-2-yl)-6-iodo-3-methyl-3H-imidazo[4,5-b]pyridine], the mortality at 0.01 mg worked out at 100% and the mortality at 0.2 mg is 100%.
In the case of `CCS(=O)(=O)c1cccnc1-c1nc2cc(SC(F)(F)F)cnc2n1C` [Present fused heterocyclic compound 15, 2-(3-ethylsulfonyl-pyridin-2-yl)-3-methyl-6-trifluoromethylsulfanyl-3H-imidazo[4,5-b]pyridine], the mortality at 0.01 mg was found to be 100% and the mortality at 0.2 mg amounted to 100%.
As for `CCS(=O)(=O)c1cccnc1-c1nc2cc(S(=O)(=O)C(F)(F)F)cnc2n1C` [Present fused heterocyclic compound 16, 2-(3-ethylsulfonyl-pyridin-2-yl)-3-methyl-6-trifluoromethylsulfonyl-3H-imidazo[4,5-b]pyridine], the mortality at 0.01 mg amounted to 100% and the mortality at 0.2 mg is 100%.
Consider `CCSc1cc(C(F)(F)F)cnc1-c1nc2cc(C(F)(F)C(F)(F)F)cnc2n1C` [Present fused heterocyclic compound 17, 2-(3-Ethylsulfanyl-5-trifluoromethyl-pyridin-2-yl)-3-methyl-6-pentafluoroethyl-3H-imidazo[4,5-b]pyridine], for which the mortality at 0.01 mg is 100% and the mortality at 0.2 mg was found to be 100%.
Consider `CC[S+]([O-])c1cc(C(F)(F)F)cnc1-c1nc2cc(C(F)(F)C(F)(F)F)cnc2n1C` (centres unmarked) [Present fused heterocyclic compound 18, 2-(3-Ethylsulfinyl-5-trifluoromethyl-pyridin-2-yl)-3-methyl-6-pentafluoroethyl-3H-imidazo[4,5-b]pyridine], for which the mortality at 0.01 mg amounted to 100% and the mortality at 0.2 mg was 100%.
Turning to `CCS(=O)(=O)c1cc(C(F)(F)F)cnc1-c1nc2cc(C(F)(F)C(F)(F)F)cnc2n1C` [Present fused heterocyclic compound 19, 2-(3-ethylsulfonyl-5-trifluoromethyl-pyridin-2-yl)-3-methyl-6-pentafluoroethyl-3H-imidazo[4,5-b]pyridine], the mortality at 0.01 mg amounted to 100% and the mortality at 0.2 mg came to 100%.
Turning to `CCS(=O)(=O)c1cccnc1-c1nc2cc([S+]([O-])C(F)(F)F)cnc2n1C` (centres unmarked) [Present fused heterocyclic compound 20, 2-(3-ethylsulfonyl-pyridin-2-yl)-3-methyl-6-trifluoromethylsulfinyl-3H-imidazo[4,5-b]pyridine], the mortality at 0.01 mg worked out at 100% and the mortality at 0.2 mg is 100%.
Take `CCS(=O)(=O)c1cccnc1-c1nc2cc(C(F)(F)F)c[n+]([O-])c2s1` [Present fused heterocyclic compound 22, 2-(3-ethylsulfonyl-2-yl)-6-(trifluoromethyl)thiazolo[5,4-b]pyridine 4-oxide]: the mortality at 0.01 mg was 100% and the mortality at 0.2 mg was 100%.
Consider `CCS(=O)(=O)c1cc(C(F)(F)F)cnc1-c1nc2cc(S(=O)(=O)C(F)(F)F)cnc2n1C` [Present fused heterocyclic compound 25, 2-(3-Ethylsulfonyl-5-trifluoromethyl-pyridin-2-yl)-3-methyl-6-trifluoromethylsulfonyl-3H-imidazo[4,5-b]pyridine], for which the mortality at 0.01 mg was found to be 100% and the mortality at 0.2 mg amounted to 100%.
`CCS(=O)(=O)c1cc(C(F)(F)C(F)(F)F)cnc1-c1nc2cc(C(F)(F)F)cnc2n1C` [Present fused heterocyclic compound 72, 2-(3-ethylsulfonyl-5-pentafluoroethylpyridin-2-yl)-3-methyl-6-trifluoromethyl-3H-imidazo[4,5-b]pyridine]: the mortality at 0.01 mg was 100% and the mortality at 0.2 mg turned out to be 100%.
Take `CCS(=O)(=O)c1cc(C(F)(F)C(F)(F)F)cnc1-c1nc2cc(C(F)(F)C(F)(F)F)cnc2n1C` [Present fused heterocyclic compound 74, 2-(3-ethylsulfonyl-5-pentafluoroethylpyridin-2-yl)-3-methyl-6-pentafluoroethyl-3H-imidazo[4,5-b]pyridine]: the mortality at 0.01 mg was 100% and the mortality at 0.2 mg is 100%.
`CCS(=O)(=O)c1cccnc1-c1nc2cc(C(F)(F)F)ccc2o1` [Present fused heterocyclic compound 85, 2-(3-Ethylsulfonylpyridin-2-yl)-5-trifluoromethyl-benzoxazole]: the mortality at 0.01 mg is 90% and the mortality at 0.2 mg was found to be 95%.
With `CCS(=O)(=O)c1cccnc1-c1nc2cc(C(F)(F)F)cc(C#N)c2n1C` [Present fused heterocyclic compound 130, 7-Cyano-2-(3-ethylsulfonylpyridin-2-yl)-1-methyl-5-trifluoromethyl-1H-benzimidazole], the mortality at 0.01 mg was 100% and the mortality at 0.2 mg is 80%.
The matching figures for `CCS(=O)(=O)c1cc(C(F)(F)F)cnc1-c1nc2cc(C(F)(F)F)c(C#N)nc2n1C` [Present fused heterocyclic compound 399, 5-cyano-2-(3-ethylsulfonyl-5-trifluoromethylpyridin-2-yl)-3-methyl-6-trifluoromethyl-3H-imidazo[4,5-b]pyridine]: 90% and 95%.
The matching figures for `CCS(=O)(=O)c1cc(C(F)(F)F)cnc1-c1nc2cc(C(F)(F)C(F)(F)F)c[n+]([O-])c2n1C` [Present fused heterocyclic compound 409, 2-(3-ethylsulfonyl-5-trifluoromethyl-pyridin-2-yl)-3-methyl-6-pentafluoroethyl-3H-imidazo[4,5-b]pyridine 4-oxide]: 100% and 100%.
In the same order, the values of `CCS(=O)(=O)c1cc(C(OC)(OC)OC)cnc1-c1nc2cc(C(F)(F)C(F)(F)F)cnc2n1C` [Present fused heterocyclic compound 414, 2-(3-ethylsulfonyl-5-trimethoxymethyl-pyridin-2-yl)-3-methyl-6-pentafluoroethyl-3H-imidazo[4,5-b]pyridine] are 95% and 100%.

The record behind these values is patent US9883675B2, “Method for controlling pests” (SUMITOMO CHEMICAL COMPANY, LIMITED, priority 2013, dated 2018).
